{"source": "paper PMC9918900", "about": "“New Succinimide–Thiazolidinedione Hybrids as Multitarget Antidiabetic Agents: Design, Synthesis, Bioevaluation, and Molecular Modelling Studies” (Molecules, 2023)", "key": {"human DPP-4 enzyme": {"biological_target": "T1, human DPP-4 enzyme (Homo sapiens, UniProt P27487)", "T1 construct": "purchased", "T1 sequence (P27487 whole entry)": "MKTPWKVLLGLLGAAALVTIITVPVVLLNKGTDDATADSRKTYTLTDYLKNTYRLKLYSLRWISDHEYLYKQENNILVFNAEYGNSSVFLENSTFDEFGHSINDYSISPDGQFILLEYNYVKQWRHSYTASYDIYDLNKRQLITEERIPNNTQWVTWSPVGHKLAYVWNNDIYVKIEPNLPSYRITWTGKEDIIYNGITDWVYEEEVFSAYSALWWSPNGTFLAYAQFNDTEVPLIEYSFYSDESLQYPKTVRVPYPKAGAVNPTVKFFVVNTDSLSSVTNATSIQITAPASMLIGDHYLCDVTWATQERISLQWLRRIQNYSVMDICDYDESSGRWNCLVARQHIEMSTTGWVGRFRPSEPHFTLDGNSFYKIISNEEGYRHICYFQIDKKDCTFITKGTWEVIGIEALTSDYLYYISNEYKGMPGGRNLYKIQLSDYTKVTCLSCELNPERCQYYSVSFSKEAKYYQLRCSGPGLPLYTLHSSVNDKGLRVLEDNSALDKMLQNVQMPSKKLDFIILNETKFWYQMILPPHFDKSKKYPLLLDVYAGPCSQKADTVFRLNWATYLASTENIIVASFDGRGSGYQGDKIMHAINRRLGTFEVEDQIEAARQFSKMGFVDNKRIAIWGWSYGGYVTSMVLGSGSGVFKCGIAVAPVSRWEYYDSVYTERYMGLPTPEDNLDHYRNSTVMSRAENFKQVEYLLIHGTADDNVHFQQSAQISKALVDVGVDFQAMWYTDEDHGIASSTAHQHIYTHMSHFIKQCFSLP", "experiment": "DPP-4 activity bioassay", "assay_type": "biochemical", "procedure": "All succinimides and thiazolidinedione hybrids were tested for DPP-4 inhibitory effects on a human DPP-4 enzyme using the methodology published before. The DPP-4 kit was used to measure the inhibition. L-thiazolidine (P32/98) was included as a reference. The hybrids and DPP-4 enzyme were both adulterated 1/50 in the assay buffer (PH = 7.4, 25 mM Tris). Following that, a microplate well was filled with 5 μL of assay buffer, 3 μL of enzyme solution, and 2 μL of adequately diluted test chemical solutions. After a 12-min incubation period at 37.5 °C, a diluted substrate solution of 25 μL was added into the solution. A multi-mode reader was used to assess the fluorescence. […] PRISM5 was used to calculate the IC50 values and compare the inhibition ratio to the control without the inhibitor."}, "[1]": {"test_system": "streptozotocin-induced diabetic rats", "experiment": "liver and renal serum biomarkers", "assay_type": "in vivo, Wistar rats", "conditions": "28th day", "procedure": "(§1) Non-insulin-dependent diabetes mellitus was induced in fasted rats weighing 150–230 gm using a single dose of streptozotocin (STZ) at a dose of 60 mg/kg intraperitoneally after 15 min of the administration of nicotinamide at a 120 mg/kg dose i.p. Nicotinamide was prepared in normal saline while in citrate buffer (pH 4.5), STZ was prepared. After the induction of diabetes, the increase in the plasma glucose level was measured at 72 h and then measured on the 7th day to confirm hyperglycemia. For the diagnosis of diabetes, the threshold value of the fasting plasma glucose level was considered to be more than 126 mg/dl. For the study, only the animals with permanent NIIDM were utilized.\n(§2) The animals were classified into 5 groups with 6 animals in each group (n = 6). Group I comprised of normal control rats which were daily administered drinking water only; group II served as diabetic control rats (disease group); group III served as the positive control and were administered 0.5 mg/kg of the standard drug glibenclamide; and group IV and V served as the test group rats and were administered the test compound 10d at 10 mg/kg and 20 mg/kg, respectively, for twenty-eight days. The fasting glucose concentration was measured on the 0, 7th, 14th, and 28th day of the administration of the extract. During the experimental tenure, the weights of the rats were determined daily and the mean change was recorded.\n(§3) The animals were euthanized (sacrificed) via cervical dislocation on the 28th day to observe the biochemical parameters. The parameters studied were triglyceride (TGL), cholesterol, low-density lipoprotein, and high-density lipoprotein (LDL and HDL). The Minias Globe Diagnostic kits were used for cholesterol and TGL. Semi-autoanalyzers were used for the analysis. The serum samples from the rats were also checked for alanine aminotransferase (ALT), aspartate aminotransferase (AST), lactate dehydrogenase (LDH), serum alkaline phosphatase (ALP), and creatinine and urea levels utilizing commercially available kits of Crest Biosystems. The statistical analysis was also performed as per the previous procedure."}, "PTP1B": {"biological_target": "T2, PTP1B (Homo sapiens, UniProt P18031)", "T2 sequence (P18031 1-435)": "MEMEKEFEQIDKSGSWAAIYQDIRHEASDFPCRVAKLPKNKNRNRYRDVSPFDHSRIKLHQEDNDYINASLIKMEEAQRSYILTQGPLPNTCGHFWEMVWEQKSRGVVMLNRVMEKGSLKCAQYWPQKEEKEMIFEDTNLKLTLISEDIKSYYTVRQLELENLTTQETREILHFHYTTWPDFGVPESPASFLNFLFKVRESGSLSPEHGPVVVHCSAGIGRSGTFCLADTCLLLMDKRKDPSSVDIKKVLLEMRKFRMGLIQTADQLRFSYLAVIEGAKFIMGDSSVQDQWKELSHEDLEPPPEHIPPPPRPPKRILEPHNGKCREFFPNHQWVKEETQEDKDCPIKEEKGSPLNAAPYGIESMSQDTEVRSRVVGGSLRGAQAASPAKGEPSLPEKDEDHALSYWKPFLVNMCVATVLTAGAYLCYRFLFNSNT", "experiment": "PTP1B assay (pNPP substrate)", "assay_type": "biochemical", "procedure": "The aforementioned newly synthesize succinimides and thiazolidinedione hybrids were tested against the PTP1B enzyme to determine their ability to inhibit the negative regulation of insulin as well as leptin signaling. The PTP1B test was performed with a small modification to the method described in the publications. The enzyme efficiency was evaluated using […] (pNPP) as a substrate. For the buffer solution, 0.5 millimolar (mM) of ethylene diamine tetraacetic acid (EDTA), 1 mM of mercaptoethanol, 0.55 mM of dithiothreitol (DTT), and 12.49 mM of TRIS hydrochloride (ph = 7.4) were used. The experiment was carried out by mixing 10.0 μL of the test compound solutions with 20.0 μL of the enzyme (1 μg/mL), subsequently injecting 40.0 μL of 4.0 mM 4-nitrophenyl dihydrogen phosphate in 130.5 μL of the prescribed buffer in a microplate well at 37 °C for 10 min. pNP was formed during the enzymatic process, which was monitored for 30 min. The IC50 values were derived using a non-linear regression analysis of the fraction of the product generated vs. the log of the inhibitory concentration."}, "α-glucosidase": {"biological_target": "α-glucosidase", "experiment": "in vitro α-glucosidase inhibitory activity", "assay_type": "biochemical, Homo sapiens", "procedure": "The inhibitory analyses for α-glucosidase were carried out in accordance with the protocols reported in the literature; the inhibitory activities of the synthesized hybrids were calculated utilizing screening assay tools."}, "[2]": {"test_system": "streptozotocin-induced diabetic rats", "experiment": "effect on serum lipid profile of diabetic animals", "assay_type": "in vivo, Wistar rats", "conditions": "compared to diabetic control group", "procedure": "The antidiabetic activity of the synthesized compound 10d was evaluated using a streptozotocin-induced diabetic rats model.\nMale Wistar rats weighing 150 to 230 gm were used for the study which were housed in polyacrylic cages (no more than six animals per cage) with dimensions of 38 × 23 × 10 cm and maintained under standard laboratory conditions with a dark/light cycle of 14 h of dark and 10 h of light at a temperature of 25 °C. The animals were provided with a standard diet (dry pellet) and water ad libitum. Before the start of the experimental procedures, the rats were acclimatized to laboratory conditions for 10 days. All the experiments were approved and performed as per the guidelines of the Departmental Research Ethics Committee under letter No. DREC/050 [49].\nas §1, §2, §3"}}, "data": [{"smiles": "CC(C)(C=C1SC(=O)N(C(=O)CN2CCOCC2)C1=O)C1CC(=O)N(Cc2ccccc2)C1=O", "note": "(stereo not shown) [10d]", "values": [{"measurement": "inhibition at 31.25 µM", "setting": "human DPP-4 enzyme; 31.25 µM, read-out: DPP4 (inhibition) (converted)", "result": 71.4, "unit": "%"}, {"measurement": "inhibition at 62.5 µM", "setting": "human DPP-4 enzyme; 62.5 µM, read-out: DPP4 (inhibition) (converted)", "result": 76.5, "unit": "%"}, {"measurement": "inhibition at 125 µM", "setting": "human DPP-4 enzyme; 125 µM, read-out: DPP4 (inhibition) (converted)", "result": 81.4, "unit": "%"}, {"measurement": "inhibition at 250 µM", "setting": "human DPP-4 enzyme; 250 µM, read-out: DPP4 (inhibition) (converted)", "result": 85.3, "unit": "%"}, {"measurement": "inhibition at 500 µM", "setting": "human DPP-4 enzyme; 500 µM, read-out: DPP4 (inhibition)", "result": "91.4 ± 1.49", "unit": "%"}, {"measurement": "IC50", "setting": "human DPP-4 enzyme; read-out: IC50 DPP4", "result": 4.22, "unit": "µM"}, {"measurement": "ALP", "setting": "[1]; 10mg (10 mg/kg)", "result": "184.43 ± 3.83", "unit": "U/L"}, {"measurement": "ALT", "setting": "[1]; 10mg (10 mg/kg)", "result": "136.80 ± 2.15", "unit": "U/L"}, {"measurement": "AST", "setting": "[1]; 10mg (10 mg/kg)", "result": "123.40 ± 3.70", "unit": "U/L"}, {"measurement": "Creatinine", "setting": "[1]; 10mg (10 mg/kg)", "result": "0.51 ± 0.57 ^ns mg/dl"}, {"measurement": "LDH", "setting": "[1]; 10mg (10 mg/kg)", "result": "930.11 ± 4.26", "unit": "U/L"}, {"measurement": "Urea", "setting": "[1]; 10mg (10 mg/kg)", "result": "75.26 ± 2.44", "unit": "mg/dL"}, {"measurement": "ALP", "setting": "[1]; 20mg (20 mg/kg)", "result": "122.80 ± 2.00", "unit": "U/L"}, {"measurement": "ALT", "setting": "[1]; 20mg (20 mg/kg)", "result": "60.42 ± 2.20", "unit": "U/L"}, {"measurement": "AST", "setting": "[1]; 20mg (20 mg/kg)", "result": "94.32 ± 2.30", "unit": "U/L"}, {"measurement": "Creatinine", "setting": "[1]; 20mg (20 mg/kg)", "result": "0.42 ± 0.31 ^ns mg/dl"}, {"measurement": "LDH", "setting": "[1]; 20mg (20 mg/kg)", "result": "850.53 ± 4.41", "unit": "U/L"}, {"measurement": "Urea", "setting": "[1]; 20mg (20 mg/kg)", "result": "51.53 ± 2.23", "unit": "mg/dL"}, {"measurement": "IC50", "setting": "PTP1B", "result": 3.64, "unit": "µM"}, {"measurement": "inhibition at 31.25 µM", "setting": "PTP1B; 31.25 µM", "result": 71.8, "unit": "%"}, {"measurement": "inhibition at 62.5 µM", "setting": "PTP1B; 62.5 µM", "result": 74.7, "unit": "%"}, {"measurement": "inhibition at 125 µM", "setting": "PTP1B; 125 µM", "result": 79, "unit": "%"}, {"measurement": "inhibition at 250 µM", "setting": "PTP1B; 250 µM", "result": 84.5, "unit": "%"}, {"measurement": "inhibition at 500 µM", "setting": "PTP1B; 500 µM", "result": "89.88 ± 0.89", "unit": "%"}, {"measurement": "IC50", "setting": "α-glucosidase", "result": 10, "unit": "µM"}, {"measurement": "% α-Glucosidase Inhibition", "setting": "α-glucosidase; 31.25 µM", "result": "67.10 ± 0.95", "unit": "%"}, {"measurement": "% α-Glucosidase Inhibition", "setting": "α-glucosidase; 62.5 µM", "result": "72.26 ± 0.77", "unit": "%"}, {"measurement": "% α-Glucosidase Inhibition", "setting": "α-glucosidase; 125 µM", "result": "77.93 ± 0.90", "unit": "%"}, {"measurement": "% α-Glucosidase Inhibition", "setting": "α-glucosidase; 250 µM", "result": "83.83 ± 0.66", "unit": "%"}, {"measurement": "% α-Glucosidase Inhibition", "setting": "α-glucosidase; 500 µM", "result": "88.43 ± 1.26", "unit": "%"}, {"measurement": "HDL level", "setting": "[2]", "result": "greater than before"}, {"measurement": "LDL in serum", "setting": "[2]", "result": "significant decline"}, {"measurement": "total cholesterol level in serum", "setting": "[2]", "result": "significant decline"}, {"measurement": "triglyceride in serum", "setting": "[2]", "result": "significant decline"}]}]}
